US20080261891A1, “COMPOSITIONS AND METHODS FOR USING SYRINGOPEPTIN 25A AND RHAMNOLIPIDS” (Utah State University, priority 2007, published 2008)
Values after ≈ are worked out from the molar mass of the structure shown. Where two headings read alike, the source gives them in different places. Where a SMILES comes first, the peptide text is derived from it. Bridges are numbered along the chain shown (N, C = ends). [ ]: non-standard residue; d: D form. The star is where a group is joined. ξ: configuration not given here. Decanoyl(3ξ-OH) = CCCCCCCC(O)CC(=O)*; Dab = NCC[CH](N)C(=O)O; Dhb = C/C=C(\N)C(=O)O

Assays:
[1] = tested on: Lactococcus lactis subsp. Lactis; assay: Inhibition rate (IR), propidium iodide uptake; type: cell-based
Protocol: (§1) The antimicrobial action for each compound was initially determined by the rate of uptake of propidium iodide (Fluoropure grade, Molecular Probes, Inc., Eugene, Oreg.) as previously described (Haughland, R. P., 2002, Handbook of fluorescent probes and research chemicals, 9th ed. Molecular Probes, Inc., Eugene, Oreg.). Briefly, all cultures were grown overnight in their respective optimal growth medium and temperature from freezer vials (Table 1). Each culture was sub-cultured twice, harvested in mid-log phase, washed with saline, and adjusted to an appropriate concentration by measuring the optical density at 600 nm. PI, with an excitation wavelength of 535 and an emission wavelength of 617, was added to the culture suspension at a final concentration of 10 μM. Each organism was treated with 50 μg/mL SP 25A and 60 μg/mL of the RL mixture in a final volume of 2.2 mL. The increase in fluorescence was measured with a Shimadzu RF 1501 spectrophotofluorometer at 15 s intervals for a maximum period of 120 min. Saline was added in place of SP 25A or RLs as a negative control. All inhibition experiments were done in replicate.
(§2) The rate of antimicrobial action was expressed as the inhibition rate (“IR”). Curve fitting was done using OriginPro version 7.0 (Natick, Mass.). IR=((Log RFU/(Time))−C)/Time (when d Log RFU/dT>0). Where RFU=relative fluorescent units; and C=Y intercept.

Salmonella enteridis = assay: Inhibition rate (IR), propidium iodide uptake; type: cell-based
Protocol: as §1, §2

[2] = tested on: Lactobacillus acidophilus; assay: Inhibition rate (IR), propidium iodide uptake; type: cell-based
Protocol: as §1, §2

Salmonella typhimurium = assay: Inhibition rate (IR), propidium iodide uptake; type: cell-based
Protocol: as §1, §2

Bacillus megaterium = assay: Inhibition rate (IR), propidium iodide uptake; type: cell-based
Protocol: as §1, §2

Listeria innocua = assay: Inhibition rate (IR), propidium iodide uptake; type: cell-based
Protocol: as §1, §2

Streptococcus suis = assay: Inhibition rate (IR), propidium iodide uptake; type: cell-based
Protocol: as §1, §2

Brevibacterium linens = assay: Inhibition rate (IR), propidium iodide uptake; type: cell-based
Protocol: as §1, §2

[3] = tested on: Eschereschia coli H7:0157; assay: Inhibition rate (IR), propidium iodide uptake; type: cell-based
Protocol: as §1, §2

[4] = tested on: Klebsiella pneumoniae subsp. Pneumoniae; assay: Inhibition rate (IR), propidium iodide uptake; type: cell-based
Protocol: as §1, §2

Enterobacter aerogenes = assay: Inhibition rate (IR), propidium iodide uptake; type: cell-based
Protocol: as §1, §2

Lactobacillus plantarum = assay: Inhibition rate (IR), propidium iodide uptake; type: cell-based
Protocol: as §1, §2

[5] = tested on: Streptococcus agalacticae; assay: Inhibition rate (IR), propidium iodide uptake; type: cell-based
Protocol: as §1, §2

Listeria monocytogenes = assay: Inhibition rate (IR), propidium iodide uptake; type: cell-based
Protocol: as §1, §2

Micrococcus luteus = assay: Inhibition rate (IR), propidium iodide uptake; type: cell-based
Protocol: as §1, §2

[6] = tested on: Staphylococcus aureus subsp. aureus; assay: Inhibition rate (IR), propidium iodide uptake; type: cell-based
Protocol: as §1, §2

Streptococcus mutans = assay: Inhibition rate (IR), propidium iodide uptake; type: cell-based
Protocol: as §1, §2

Erwinia herbicola = assay: Inhibition rate (IR), propidium iodide uptake; type: cell-based
Protocol: as §1, §2

Aeromonas caviae = assay: Inhibition rate (IR), propidium iodide uptake; type: cell-based
Protocol: as §1, §2

Bacillus cereus = assay: Inhibition rate (IR), propidium iodide uptake; type: cell-based
Protocol: as §1, §2

Clostridium sporogenes = assay: Inhibition rate (IR), propidium iodide uptake; type: cell-based
Protocol: as §1, §2

Flavobacterium devorans = assay: Inhibition rate (IR), propidium iodide uptake; type: cell-based
Protocol: as §1, §2

Eschereschia coli K12 = assay: Inhibition rate (IR), propidium iodide uptake; type: cell-based
Protocol: as §1, §2

Bacillus subtilis = assay: Inhibition rate (IR), propidium iodide uptake; type: cell-based
Protocol: as §1, §2

Citrobacter fruendii = assay: Inhibition rate (IR), propidium iodide uptake; type: cell-based
Protocol: as §1, §2

Enterococcus faecalis = assay: Inhibition rate (IR), propidium iodide uptake; type: cell-based
Protocol: as §1, §2

[7] = tested on: selected human cancer cell lines;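 note: MTT dye viability readout in semi-confluent cancer cells, compound exposure 1-24 hours, MTT then 4 hours at 37 °C, compared against untreated negative control wells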
Protocol: Cancer cell assays can be performed using the MTT dye protocol. Viability of cells may be determined by the dye response. In the following procedure, approximately 1.5×10^4 cells per well can be added and viability may be determined with the cells in a semi-confluent state. The assay can be performed in a 96-well microtiter plate using a New Brunswick Cell Counter. After addition of the compound or compounds of the present invention, the plate may incubate for 1-24 hours. MTT may be added to each well including negative control wells untreated with the compounds of the present invention. The plate would then be incubated at 37° C. for 4 hours. The liquid contents of each well can then be removed, and isopropanol with 0.1 M HCl would then be added to each well. The plate can be sealed with parafilm to prevent evaporation of the isopropanol. The plate would then be allowed to sit for approximately 5-10 minutes in order to solubilize the precipitate. Purified water would then be added to each well.

Compound: C/C=C(\NC(=O)C(C)NC(=O)C(C)NC(=O)C(CC(C)C)NC(=O)C(NC(=O)C(C)NC(=O)C(C)NC(=O)C(NC(=O)C1CCCN1C(=O)/C(=C/C)NC(=O)CC(O)CCCCCCC)C(C)C)C(C)C)C(=O)NC(C(=O)N/C(=C\C)C(=O)NC(C)C(=O)NC(C(=O)NC(C)C(=O)NC(C)C(=O)N/C(=C\C)C(=O)NC1C(=O)NC(CO)C(=O)NC(C)C(=O)NC(C(C)C)C(=O)NC(C)C(=O)NC(CCN)C(=O)NC(CCN)C(=O)NC(Cc2ccc(O)cc2)C(=O)OC1C)C(C)C)C(C)C (centres unmarked) [SP 25A, syringopeptin 25A] ({Decanoyl(3ξ-OH)}-[Dhb]PVAAVLAA[Dhb]V[Dhb]AVAA[Dhb]TSAVA[Dab][Dab]Y; ester 18-C; configuration not given here)
- IR SP 25A (50 μg/mL) [1]: 0.008
- IR SP 25A (50 μg/mL) (Salmonella enteridis): 0.000
- IR SP 25A (50 μg/mL) [2]: 0.003
- IR SP 25A (50 μg/mL) (Salmonella typhimurium): 0.000
- IR SP 25A (50 μg/mL) (Bacillus megaterium): 0.005
- IR SP 25A (50 μg/mL) (Listeria innocua): 0.005
- IR SP 25A (50 μg/mL) (Streptococcus suis): 0.006
- IR SP 25A (50 μg/mL) (Brevibacterium linens): 0.009
- IR SP 25A (50 μg/mL) [3]: 0.000
- IR SP 25A (50 μg/mL) [4]: 0.000
- IR SP 25A (50 μg/mL) (Enterobacter aerogenes): 0.000
- IR SP 25A (50 μg/mL) (Lactobacillus plantarum): 0.003
- IR SP 25A (50 μg/mL) [5]: 0.004
- inhibition rate relative to the inhibition rate for RLs (Listeria monocytogenes; L. monocytogenes, each compound tested by itself): approximately one-sixth
- IR SP 25A (50 μg/mL) (Listeria monocytogenes; Listeria monocytogenes, 50 μg/mL): 0.005
- IR SP 25A (50 μg/mL) (Micrococcus luteus): 0.006
- IR SP 25A (50 μg/mL) [6]: 0.003
- IR SP 25A (50 μg/mL) (Streptococcus mutans): 0.003
- IR SP 25A (50 μg/mL) (Erwinia herbicola): 0.000
- IR SP 25A (50 μg/mL) (Aeromonas caviae): 0.000
- IR SP 25A (50 μg/mL) (Bacillus cereus): 0.004
- IR SP 25A (50 μg/mL) (Clostridium sporogenes): 0.008
- IR SP 25A (50 μg/mL) (Flavobacterium devorans): 0.002
- IR SP 25A (50 μg/mL) (Eschereschia coli K12): 0.000
- IR SP 25A (50 μg/mL) (Bacillus subtilis): 0.006
- IR SP 25A (50 μg/mL) (Citrobacter fruendii): 0.000
- IR SP 25A (50 μg/mL) (Enterococcus faecalis): 0.001
- IC50 ([7]; Bone (U2OS)): 101.47 µg/mL (≈ 42.3 µM)
- % cytotoxicity ([7]; Bone (U2OS), 1.00 ug/ml): −10.06%
- % cytotoxicity ([7]; Bone (U2OS), 2.50 ug/ml): −3.64%
- % cytotoxicity ([7]; Bone (U2OS), 5.00 ug/ml): 1.69%
- % cytotoxicity ([7]; Bone (U2OS), 10.00 ug/ml): 4.93%
- IC50 ([7]; Breast (MCF-7)): 30.27 µg/mL (≈ 12.6 µM)
- % cytotoxicity ([7]; Breast (MCF-7), 1.00 ug/ml): −20.40%
- % cytotoxicity ([7]; Breast (MCF-7), 2.50 ug/ml): −1.12%
- % cytotoxicity ([7]; Breast (MCF-7), 5.00 ug/ml): 1.76%
- % cytotoxicity ([7]; Breast (MCF-7), 10.00 ug/ml): 16.52%
- IC50 ([7]; Breast (MDA-MB231)): 10.14 µg/mL (≈ 4.23 µM)
- % cytotoxicity ([7]; Breast (MDA-MB231), 1.00 ug/ml): −12.40%
- % cytotoxicity ([7]; Breast (MDA-MB231), 2.50 ug/ml): 9.23%
- % cytotoxicity ([7]; Breast (MDA-MB231), 5.00 ug/ml): 21.98%
- % cytotoxicity ([7]; Breast (MDA-MB231), 10.00 ug/ml): 49.30%
- IC50 ([7]; Breast (MDA-MB435)): 6.25 µg/mL (≈ 2.6 µM)
- % cytotoxicity ([7]; Breast (MDA-MB435), 1.00 ug/ml): 20.78%
- % cytotoxicity ([7]; Breast (MDA-MB435), 2.50 ug/ml): −5.22%
- % cytotoxicity ([7]; Breast (MDA-MB435), 5.00 ug/ml): 18.84%
- % cytotoxicity ([7]; Breast (MDA-MB435), 10.00 ug/ml): 79.98%
- IC50 ([7]; Cervical (HeLa)): 25.50 µg/mL (≈ 10.6 µM)
- % cytotoxicity ([7]; Cervical (HeLa), 1.00 ug/ml): 1.68%
- % cytotoxicity ([7]; Cervical (HeLa), 2.50 ug/ml): 3.50%
- % cytotoxicity ([7]; Cervical (HeLa), 5.00 ug/ml): 1.08%
- % cytotoxicity ([7]; Cervical (HeLa), 10.00 ug/ml): 19.61%
- IC50 ([7]; Colon (HT29)): 29.72 µg/mL (≈ 12.4 µM)
- % cytotoxicity ([7]; Colon (HT29), 1.00 ug/ml): 8.89%
- % cytotoxicity ([7]; Colon (HT29), 2.50 ug/ml): 23.85%
- % cytotoxicity ([7]; Colon (HT29), 5.00 ug/ml): 24.59%
- % cytotoxicity ([7]; Colon (HT29), 10.00 ug/ml): 16.83%
- IC50 ([7]; Lung (A549)): 11.41 µg/mL (≈ 4.75 µM)
- % cytotoxicity ([7]; Lung (A549), 1.00 ug/ml): 15.66%
- % cytotoxicity ([7]; Lung (A549), 2.50 ug/ml): 13.51%
- % cytotoxicity ([7]; Lung (A549), 5.00 ug/ml): 41.14%
- % cytotoxicity ([7]; Lung (A549), 10.00 ug/ml): 43.82%
- IC50 ([7]; Ovarian (OVCAR3)): 19.75 µg/mL (≈ 8.23 µM)
- % cytotoxicity ([7]; Ovarian (OVCAR3), 1.00 ug/ml): 6.42%
- % cytotoxicity ([7]; Ovarian (OVCAR3), 2.50 ug/ml): 16.30%
- % cytotoxicity ([7]; Ovarian (OVCAR3), 5.00 ug/ml): 16.41%
- % cytotoxicity ([7]; Ovarian (OVCAR3), 10.00 ug/ml): 25.31%
- IC50 ([7]; Prostate (DU145)): 6.56 µg/mL (≈ 2.73 µM)
- % cytotoxicity ([7]; Prostate (DU145), 1.00 ug/ml): 26.92%
- % cytotoxicity ([7]; Prostate (DU145), 2.50 ug/ml): 23.60%
- % cytotoxicity ([7]; Prostate (DU145), 5.00 ug/ml): 45.22%
- % cytotoxicity ([7]; Prostate (DU145), 10.00 ug/ml): 76.25%
- IC50 ([7]; Stomach (AGS)): 18.58 µg/mL (≈ 7.74 µM)
- % cytotoxicity ([7]; Stomach (AGS), 1.00 ug/ml): 4.00%
- % cytotoxicity ([7]; Stomach (AGS), 2.50 ug/ml): 13.87%
- % cytotoxicity ([7]; Stomach (AGS), 5.00 ug/ml): 26.88%
- % cytotoxicity ([7]; Stomach (AGS), 10.00 ug/ml): 26.90%
